Data set [1] in a line: Solubility of peptide in water. The class given is physicochemical. The method, then: H23, H26, H30, 2H30, and 4H30 shown in Table 1 were synthesized by ChinaPeptide (Shanghai, China). All peptides were dissolved in water. The solubility of peptide in water is greater than 5 mg ml^−1. The purity of all peptides was >80%. The purity and mass of each peptide were verified by HPLC and mass spectrometry.

The test system of data set [2] is VeroE6 cells. Description: Endosomal acidification assay. The class given is cell-based. The procedure: Endosomal acidification was detected with a pH-sensitive dye (pHrodo green dextran, Invitrogen, Cat^# P35365) according to the manufacturer's instructions as previously described but with slight modification (H. Zhao, et al., Nat Commun, 9 (2018) 2358). First, VeroE6 cells were treated with DMEM, 4H30 (25.0 μg ml^−1), or bafilomycin A1 (50.0 nM) at 4° C. for 15 min. Second, VeroE6 cells were added with 100 μg ml^−1 of pH-sensitive dye and DAPI and then incubated at 4° C. for 15 min. Before taking images, cells were further incubated at 37° C. for 15 min and then cells were washed twice with PBS. Finally, PBS was added to cells and images were taken immediately with confocal microscope (Carl Zeiss LSM 800, Germany).

The subject of data set [3] is spike-ACE2 mediated fusion. The class given is cell-based. The settings on record: endocytosis pathway.
For data set [4], the target named is SARS-CoV-2 spike (SARS-CoV-2), P0DTC2. Description: cell-based or functional assay.

Where a SMILES comes first, the peptide text is derived from it. A value given as a limit tells only on which side of the number the result lay.

Turning to `CC[C@H](C)[C@H](NC(=O)[C@H](CCC(N)=O)NC(=O)[C@H](CCCCN)NC(=O)[C@H](Cc1ccc(O)cc1)NC(=O)[C@H](CCCNC(=N)N)NC(=O)[C@H](CCCNC(=N)N)NC(=O)[C@@H]1CCCN1C(=O)[C@H](CS)NC(=O)[C@H](Cc1ccccc1)NC(=O)[C@@H](NC(=O)[C@@H]1CCCN1C(=O)[C@H](Cc1c[nH]cn1)NC(=O)[C@@H](N)CS)C(C)C)C(=O)NCC(=O)N[C@H](C(=O)N[C@@H](CS)C(=O)NCC(=O)N[C@@H](CC(C)C)C(=O)N1CCC[C@H]1C(=O)NCC(=O)N[C@H](C(=O)N[C@@H](CCCCN)C(=O)N[C@@H](CS)C(=O)N[C@@H](CS)C(=O)N[C@@H](CCCCN)C(=O)N[C@@H](CCCCN)C(=O)O)[C@@H](C)O)[C@@H](C)O` [Peptide H26] (H-CHPVFCPRRYKQIGTCGLPGTKCCKK-OH; N-terminus and C-terminus assumed), the solubility (as a rule, the concentration that dissolves in the medium under given conditions) in data set [1] was greater than 5000 µg/mL.
`CO/C1=C\C(C)=C\[C@@H](C)[C@@H](O)[C@@H](C)C/C(C)=C/C=C/[C@H](OC)[C@@H]([C@@H](C)[C@@H](O)[C@H](C)[C@@]2(O)C[C@@H](O)[C@H](C)[C@@H](C(C)C)O2)OC1=O` [bafilomycin Al, bafilomycin A1, reference compound]: the endosomal acidification entry in data set [2] is listed as “inhibiting endosomal acidification”. Also, the “spike-ACE2 mediated cell fusion” value in data set [3] was “inhibiting endosomal acidification and cell fusion”.
`CC[C@H](C)[C@H](NC(=O)[C@H](CCC(N)=O)NC(=O)[C@H](CCCCN)NC(=O)[C@H](Cc1ccc(O)cc1)NC(=O)[C@H](CCCNC(=N)N)NC(=O)[C@H](CCCNC(=N)N)NC(=O)[C@@H]1CCCN1C(=O)[C@H](CS)NC(=O)[C@H](Cc1ccccc1)NC(=O)[C@@H](NC(=O)[C@@H]1CCCN1C(=O)[C@H](Cc1c[nH]cn1)NC(=O)[C@@H](N)CS)C(C)C)C(=O)NCC(=O)N[C@H](C(=O)N[C@@H](CS)C(=O)NCC(=O)N[C@@H](CC(C)C)C(=O)N1CCC[C@H]1C(=O)NCC(=O)N[C@H](C(=O)N[C@@H](CCCCN)C(=O)N[C@@H](CS)C(=O)O)[C@@H](C)O)[C@@H](C)O` [Peptide H23] (H-CHPVFCPRRYKQIGTCGLPGTKC-OH; N-terminus and C-terminus assumed) displayed a solubility in data set [1] greater than 5000 µg/mL.
On the same count and under the same terms, for `CC[C@H](C)[C@H](NC(=O)[C@H](C)NC(=O)CN)C(=O)N[C@@H](CS)C(=O)N[C@@H](Cc1c[nH]cn1)C(=O)N1CCC[C@H]1C(=O)N[C@H](C(=O)N[C@@H](Cc1ccccc1)C(=O)N[C@@H](CS)C(=O)N1CCC[C@H]1C(=O)N[C@@H](CCCNC(=N)N)C(=O)N[C@@H](CCCNC(=N)N)C(=O)N[C@@H](Cc1ccc(O)cc1)C(=O)N[C@@H](CCCCN)C(=O)N[C@@H](CCC(N)=O)C(=O)N[C@H](C(=O)NCC(=O)N[C@H](C(=O)N[C@@H](CS)C(=O)NCC(=O)N[C@@H](CC(C)C)C(=O)N1CCC[C@H]1C(=O)NCC(=O)N[C@H](C(=O)N[C@@H](CCCCN)C(=O)N[C@@H](CS)C(=O)N[C@@H](CS)C(=O)N[C@@H](CCCCN)C(=O)N[C@@H](CCCCN)C(=O)N1CCC[C@H]1C(=O)O)[C@@H](C)O)[C@@H](C)O)[C@@H](C)CC)C(C)C` [Peptide H30] (H-GAICHPVFCPRRYKQIGTCGLPGTKCCKKP-OH; N-terminus and C-terminus assumed) the value was greater than 5000 µg/mL.
As to GAICHPVFCPRRYKQIGTCGLPGTKCCKKP (modifications not checked) [four branched H30 (4H30)], the IC50 of inhibition of SARS-CoV-2 infection, plaque reduction assay in PBS in data set [4] is 0.59 µg/mL.
